What was measured:
Rattus norvegicus [1] = assay: Toxicity is evaluated according to a five-level scale ranging from 0 to 5+ at the specified oral dose of 33.0 (umol/kg/day); assay type: organism-based; settings: in vivo
Pneumocystis carinii [2] = assay: The compound was tested in vivo against Pneumocystis carinii pneumonia (PCP) in the immunosuppressed rat model at iv dose of 11.0 (umol/kg/day); assay type: functional
Pneumocystis carinii [3] = assay: The compound was tested in vivo against Pneumocystis carinii pneumonia (PCP) in the immunosuppressed rat model at oral dose of 33.0(umol/kg/day); assay type: functional
Pneumocystis carinii [4] = assay: The compound was tested in vivo against Pneumocystis carinii pneumonia (PCP) in the immunosuppressed rat model at iv dose of 22.0 (umol/kg/day); assay type: functional
Rattus norvegicus [5] = assay: Toxicity is evaluated according to a five-level scale ranging from 0 to 5+ at the specified iv dose of 22.0 (umol/kg/day); assay type: organism-based; settings: in vivo
Pneumocystis carinii [6] = assay: The compound was tested in vivo against Pneumocystis carinii pneumonia (PCP) in the immunosuppressed rat model at iv dose of 34.7 (umol/kg/day); assay type: functional
Rattus norvegicus [7] = assay: Toxicity is evaluated according to a five-level scale ranging from 0 to 5+ at the specified iv dose of 34.7 (umol/kg/day); assay type: organism-based; settings: in vivo
Rattus norvegicus [8] = assay: Toxicity is evaluated according to a five-level scale ranging from 0 to 5+ at the specified oral dose of 39.8 (umol/kg/day); assay type: organism-based; settings: in vivo
Pneumocystis carinii [9] = assay: The compound was tested in vivo against Pneumocystis carinii pneumonia (PCP) in the immunosuppressed rat model at oral dose of 39.8(umol/kg/day); assay type: functional
Pneumocystis carinii [10] = assay: The compound was tested in vivo against Pneumocystis carinii pneumonia (PCP) in the immunosuppressed rat model at iv dose of 13.3 (umol/kg/day); assay type: functional
Rattus norvegicus [11] = assay: Toxicity is evaluated according to a five-level scale ranging from 0 to 5+ at the specified iv dose of 13.3 (umol/kg/day); assay type: organism-based; settings: in vivo
Rattus norvegicus [12] = assay: Toxicity is evaluated according to a five-level scale ranging from 0 to 5+ at the specified iv dose of 11.0 (umol/kg/day); assay type: organism-based; settings: in vivo
Pneumocystis carinii [13] = assay: The compound was tested in vivo against Pneumocystis carinii pneumonia (PCP) in the immunosuppressed rat model at iv dose of 11.3(umol/kg/day); assay type: functional

Structure (SMILES) | Toxicity (Rattus norvegicus [1]) | Control (Pneumocystis carinii [3]) [%] | Control (Pneumocystis carinii [4]) [%] | Toxicity (Rattus norvegicus [5]) | also measured
CC(=O)OC(C)OC(=O)NC(=N)c1ccc(-c2ccc(-c3ccc(C(=N)NC(=O)OC(C)OC(C)=O)cc3)o2)cc1 (centres undefined) | 0 | 57.16 | – | – | Control (Pneumocystis carinii [2]): 1.21%
COc1ccc(OC(=O)NC(=N)c2ccc(-c3ccc(-c4ccc(C(=N)NC(=O)Oc5ccc(OC)cc5)cc4)o3)cc2)cc1 | 0 | 2.1 | 0.02 | 0 | –
N/C(=N\C(=O)OCC(Cl)(Cl)Cl)c1ccc(-c2ccc(-c3ccc(/C(N)=N\C(=O)OCC(Cl)(Cl)Cl)cc3)o2)cc1 | 0 | 8.59 | 1.85 | 0 | –
COC(=O)NC(=N)c1ccc(-c2ccc(-c3ccc(C(=N)NC(=O)OC)cc3)o2)cc1 | 0 | 49.68 | 6.91 | 0 | –
CCSC(=O)NC(=N)c1ccc(-c2ccc(-c3ccc(C(=N)NC(=O)SCC)cc3)o2)cc1 | 0 | 19.52 | 83.01 | 0 | –
N=C(N)c1ccc(OCCCCCOc2ccc(C(=N)N)cc2)cc1 [PENTAMIDINE] | – | – | 3.06 | – | –
CCOC(=O)ONC(=N)c1ccc(-c2ccc(-c3ccc(C(=N)NOC(=O)OCC)cc3)o2)cc1 | 0 | 96.9 | – | – | Control (Pneumocystis carinii [6]): 1.66%; Toxicity (Rattus norvegicus [7]): 0
N=C(NC(=O)Oc1ccc(F)cc1)c1ccc(-c2ccc(-c3ccc(C(=N)NC(=O)Oc4ccc(F)cc4)cc3)o2)cc1 | 0 | 2.21 | 0.02 | 0 | –
N=C(N)c1ccc(-c2ccc(-c3ccc(C(=N)N)cc3)o2)cc1 [FURAMIDINE] | – | – | – | – | Toxicity (Rattus norvegicus [8]): 0; Control (Pneumocystis carinii [9]): 44.52%; Control (Pneumocystis carinii [10]): 0.83%; Toxicity (Rattus norvegicus [11]): 0
N=C(NC(=O)Oc1ccccc1)c1ccc(-c2ccc(-c3ccc(C(=N)NC(=O)Oc4ccccc4)cc3)o2)cc1 | 0 | 5.7 | 3.61 | 0 | –
N=C(NC(=O)OCc1ccccc1)c1ccc(-c2ccc(-c3ccc(C(=N)NC(=O)OCc4ccccc4)cc3)o2)cc1 | 0 | 18.09 | – | – | Toxicity (Rattus norvegicus [12]): 0; Control (Pneumocystis carinii [13]): 0.03%
Cc1oc(=O)oc1COC(=O)NC(=N)c1ccc(-c2ccc(-c3ccc(C(=N)NC(=O)OCc4oc(=O)oc4C)cc3)o2)cc1 | 0 | 18.73 | 0.02 | 0 | –
